According to patent US20040038428A1, “Protein microarrays” (priority 2000, published 2004):
No end group written: not given here.

Tests used:
[1] = tested on: 5-helix (portion of the HIV protein gp41); details: rank among the three peptides; cited from earlier work
[2] = target: FKBP12 (Homo sapiens, UniProt P62942); details: read-out: dissociation constants for FKBP12; cited from earlier work
[3] = target: T1, p42 MAP kinase (Erk2) (Mus musculus, UniProt P63085); experiment: kinase substrate screen on BSA-NHS slides with 33P-γ-ATP, Erk2; format: biochemical; details: slide incubated with Erk2
T1 construct: purchased New England Biolabs (Beverly, Mass.)
Procedure: (§1) To give but one example, most signal transduction networks are composed of numerous kinases and the proteins that they phosphorylate. Protein microarrays offer an ideal system for the rapid and parallel identification of the substrates of protein kinases. A microarray of proteins can be incubated with a purified kinase in the presence of ATP, and the substrates identified by detecting their phosphorylation. In but one exemplary system, three different kinase/substrate pairs were chosen: cAMP-dependent protein kinase (PKA) and “Kemptide” (a peptide substrate for PKA) (Kemp et al. J. Biol. Chem. 252:4888-4894, 1977; incorporated herein by reference); casein kinase II (CKII) and protein phosphatase inhibitor 2 (I-2) (DePaoli-Roach J. Biol. Chem. 259:12144-12152, 1984; incorporated herein by reference); and p42 MAP kinase (Erk2) and Elk1 (Marais et al. Cell 73:381-393, 1993; incorporated herein by reference). […] Following a three-hour incubation, each slide was quenched with glycine and incubated with a different kinase in the presence of ^33P-γ-ATP (FIG. 3). […]
(§2) The slide in FIG. 3A was incubated with PKA. […] Since isotopic […] is known to be quantitative, the best substrates in a library of peptides can be readily identified. […]
(§3) For FIG. 3, the proteins were spotted on BSA-NHS slides using a GMS 417 Arrayer. […] The slides were then ready for further processing (see below). […]

[4] = target: T2, cAMP-dependent protein kinase (PKA) (Mus musculus, UniProt P05132); experiment: kinase substrate screen on BSA-NHS slides with 33P-γ-ATP, PKA; format: biochemical; details: slide incubated with PKA
T2 construct: purchased New England Biolabs (Beverly, Mass.)
Procedure: as §1, §2, §3

[5] = target: T3, casein kinase II (CKII) (Homo sapiens, UniProt P68400); experiment: kinase substrate screen on BSA-NHS slides with 33P-γ-ATP, CKII; format: biochemical; details: slide incubated with CKII
T3 construct: purchased New England Biolabs (Beverly, Mass.)
Procedure: as §1, §2, §3

[6] = target: T4, p50 (of the NFκB complex) (Homo sapiens, UniProt P19838); experiment: protein microarray: protein-protein interaction, p50 spots; format: binding; details: probe 0.1 μg/ml
T4 construct: p50 (of the NFκB complex) and IκBα
T4 sequence (P19838 1-433 limits assumed): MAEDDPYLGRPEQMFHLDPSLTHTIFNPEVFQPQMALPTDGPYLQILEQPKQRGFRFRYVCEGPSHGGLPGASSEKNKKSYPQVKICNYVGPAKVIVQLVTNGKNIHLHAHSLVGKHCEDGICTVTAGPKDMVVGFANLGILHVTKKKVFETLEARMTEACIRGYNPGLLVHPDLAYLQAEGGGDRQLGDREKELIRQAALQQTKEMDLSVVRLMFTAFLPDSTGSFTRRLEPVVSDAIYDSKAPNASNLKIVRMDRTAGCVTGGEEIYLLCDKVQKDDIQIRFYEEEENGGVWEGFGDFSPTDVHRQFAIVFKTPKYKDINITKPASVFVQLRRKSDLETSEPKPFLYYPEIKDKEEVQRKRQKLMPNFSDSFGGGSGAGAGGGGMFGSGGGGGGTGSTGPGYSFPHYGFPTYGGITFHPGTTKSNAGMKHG
From the text: Arraying Proteins on Glass Slides.
Screening for Protein-Protein Interactions.

T3 sequence (P68400 whole entry): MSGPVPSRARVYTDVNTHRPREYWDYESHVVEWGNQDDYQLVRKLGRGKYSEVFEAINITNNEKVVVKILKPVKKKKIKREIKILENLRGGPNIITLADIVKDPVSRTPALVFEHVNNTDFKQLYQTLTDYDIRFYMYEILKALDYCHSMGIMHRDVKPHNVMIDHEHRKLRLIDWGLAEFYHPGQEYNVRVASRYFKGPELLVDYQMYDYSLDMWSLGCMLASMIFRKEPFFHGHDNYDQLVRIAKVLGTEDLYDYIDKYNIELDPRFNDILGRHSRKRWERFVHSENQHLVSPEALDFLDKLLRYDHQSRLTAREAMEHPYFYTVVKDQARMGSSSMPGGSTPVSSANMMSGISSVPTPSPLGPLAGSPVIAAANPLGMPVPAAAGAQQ
T3 sequence (P67870 whole entry partner): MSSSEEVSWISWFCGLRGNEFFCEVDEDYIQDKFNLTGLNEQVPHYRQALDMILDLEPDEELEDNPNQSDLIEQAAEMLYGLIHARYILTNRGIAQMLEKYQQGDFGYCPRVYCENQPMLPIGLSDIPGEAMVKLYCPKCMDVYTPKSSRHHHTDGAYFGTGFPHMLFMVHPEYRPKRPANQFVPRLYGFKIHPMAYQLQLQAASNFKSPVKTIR
Chain of FKBP12 (P62942 whole entry): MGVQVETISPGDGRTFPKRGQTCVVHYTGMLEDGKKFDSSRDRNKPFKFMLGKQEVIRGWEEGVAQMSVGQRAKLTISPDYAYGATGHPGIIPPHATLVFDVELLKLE
T1 sequence (P63085 2-358 limits assumed): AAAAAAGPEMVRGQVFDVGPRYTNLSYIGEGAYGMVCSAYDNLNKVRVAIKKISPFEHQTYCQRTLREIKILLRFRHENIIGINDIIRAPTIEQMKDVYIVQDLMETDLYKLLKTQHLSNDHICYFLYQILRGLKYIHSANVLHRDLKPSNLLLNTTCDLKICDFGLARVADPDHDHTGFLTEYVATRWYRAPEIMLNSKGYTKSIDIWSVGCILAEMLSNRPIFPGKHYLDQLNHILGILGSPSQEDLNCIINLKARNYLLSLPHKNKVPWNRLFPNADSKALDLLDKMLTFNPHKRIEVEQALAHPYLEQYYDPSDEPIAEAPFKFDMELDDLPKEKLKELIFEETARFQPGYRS

## GGHTTWMEADREINNYTSLIHSLIEESQNQQEKNEQELL [JN-DCC2, peptide ligand for 5-helix]
[1]
  relative affinity for 5-helix: lowest affinity

## COc1ccc(CC[C@@H](OC(=O)[C@@H]2CCCCN2C(=O)Cc2ccccc2)c2cccc(OCC(=O)O)c2)cc1OC [Compound 3c]
[2]
  Kd: 2.6 µM

## Elk1: protein substrate of p42 MAP kinase (Erk2)
[3]
  phosphorylation of spotted substrate: phosphorylated

## GGHTTWMEWDREINNYTSLIHSLIEESQNQQEKNEQELLGGHHHHHH [Compound C37-H6, peptide ligand for 5-helix]
[1]
  relative affinity for 5-helix: highest affinity

## LRRASLG [Kemptide]
[4]
  phosphorylation of spotted substrate: phosphorylated

## GGHTTWMELDREINNYTSLIHSLIEESQNQQEKNEQELL [JN-DCC1, peptide ligand for 5-helix]
[1]
  relative affinity for 5-helix: second highest affinity

B1: I-2: protein phosphatase inhibitor 2, substrate of casein kinase II (protein, UniProt P41236 2-205, looked up)
Protein phosphatase inhibitor …: AASTASHRPIKGILKNKTSTTSSMVASAEQPRGNVDEELSKKSQKWDEMNILATYHPADKDYGLMKIDEPSTPYHSMMGDDEDACSDTEATEAMAPDILARKLAAAEGLEPKYRIQEQESSGEEDSDLSPEEREKKRQFEMKRKLHYNEGLNIKLARQLISKDLHDDDEDEEMLETADGESMNTEESNQGSTPSDQQQNKLRSS
[5]
  phosphorylation of spotted substrate: phosphorylated

B2: Cy3-conjugated IκBα: IκBα labeled with Cy3 (protein, UniProt P25963 1-317, looked up)
NF-kappa-B inhibitor alpha: MFQAAERPQEWAMEGPRDGLKKERLLDDRHDSGLDSMKDEEYEQMVKELQEIRLEPQEVPRGSEPWKQQLTEDGDSFLHLAIIHEEKALTMEVIRQVKGDLAFLNFQNNLQQTPLHLAVITNQPEIAEALLGAGCDPELRDFRGNTPLHLACEQGCLASVGVLTQSCTTPHLHSILKATNYNGHTCLHLASIHGYLGIVELLVSLGADVNAQEPCNGRTALHLAVDLQNPDLVSLLLKCGADVNRVTYQGYSPYQLTWGRPSTRIQQQLGQLTLENLQMLPESEDEESYDTESEFTEFTEDELPYDDCVFGGQRLTL
modifications: Cy3 label
[6]
  localization of Cy3 fluorescence on array of protein G, p50 and GST-FRB: localized to the p50-containing spots
